From patent US20160193216A1 (Nimbus Iris, Inc., priority 2012, published 2016)
Read-outs that look alike come from different tables or passages of the source.

How the values were obtained:
IRAK4 = target: T1, IRAK4 (Homo sapiens, UniProt Q9NWZ3); assay: IRAK-4 activity inhibition assay (Caliper); type: biochemical; conditions: 37 μM ATP, 3.5 nM IRAK4
T1 sequence (Q9NWZ3 1-460): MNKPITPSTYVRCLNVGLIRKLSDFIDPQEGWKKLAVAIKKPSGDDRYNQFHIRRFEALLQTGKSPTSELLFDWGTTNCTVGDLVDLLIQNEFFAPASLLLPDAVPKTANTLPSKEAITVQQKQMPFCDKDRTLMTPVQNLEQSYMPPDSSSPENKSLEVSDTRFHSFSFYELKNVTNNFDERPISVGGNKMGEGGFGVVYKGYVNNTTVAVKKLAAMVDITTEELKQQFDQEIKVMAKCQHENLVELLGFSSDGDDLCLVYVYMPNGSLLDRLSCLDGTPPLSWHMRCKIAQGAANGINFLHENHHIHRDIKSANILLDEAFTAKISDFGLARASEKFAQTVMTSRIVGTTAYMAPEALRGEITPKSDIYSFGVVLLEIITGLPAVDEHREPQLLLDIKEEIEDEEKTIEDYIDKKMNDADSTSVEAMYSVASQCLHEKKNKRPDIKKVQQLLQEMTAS

THP-1 cells = assay: LPS induced cytokine (TNFα and IL8) production assay in THP-1 cells; type: cell-based; conditions: Homo sapiens, 300 ng/mL LPS
Method: Cytokine Production Assay
Provided compounds were also assayed in an LPS (Lipopolysacharide) or R848 (TLR-7 agonist) induced cytokine (TNFα and IL8) production assay in THP-1 cells, human peripheral blood mononuclear cells (hPBMC), and whole blood. The exemplary protocol for this assay in THP-1 cells was as follows below.
THP-1 cells from ATCC (TIB-202) were cultured in RPMI Medium 1640 (Invitrogen, Cat No. A10491-01), 10% fetal bovine serum (Invitrogen, Cat No. 10099141, Lot No. 8172882) containing 100 U/mL Penicillin, 100 μg/mL streptomycin (Invitrogen, Cat No. 15140-122), and 50 uM 2-Mercaptoethanol (Invitrogen, Cat No. 21985023). LPS-EK ultra pure (Invivogen, Cat No. tlrl-peklps) was used to induce IL8 and TNFα production, that was detected in the cell culture supernatant by IL8 HTRF kit (Cisbio, Cat No. 62IL8PEB) and TNFα HTRF kit (Cisbio, Cat No. 62TNFPEB), as per manufacturer instructions. Cells were cultured in 96 well assay plates at 100,000 cells per well, and compounds diluted in final 0.3% DMSO were pre-incubated with cells for 1 hour prior to stimulation with 300 ng/mL LPS. Cytokine production in cell supernatant was measured at 5 hours for TNFα and IL8 production, and for 16 hours for IL8 production and assessment of cell viability.
The compound numbers correspond to the compound numbers in Table 1. […] “NA” stands for “not assayed.”

Row | IC50 (IRAK4) [µM] | IC50 (THP-1 cells; read-out: IL8 production IC50) [µM] | IC50 (THP-1 cells; read-out: TNFα production IC50) [µM] | SMILES
1 | < 5 | 1 to 5 | 1 to 5 | NC(=O)[C@H]1CCc2sc3ncnc(N[C@H]4CC[C@H](N5CCOCC5)CC4)c3c2C1 [Compound I-207, (12S)-3-[[4-(morpholin-4-yl)cyclohexyl]amino]-8-thia-4,6-diazatricyclo[7.4.0.0[2,7]]trideca-1(9),2(7),3,5-tetraene-12-carboxamide]
2 | < 5 | ≤ 0.5 | ≤ 0.5 | CN(C)[C@H]1CC[C@H](Oc2ncnc3sc4c(c23)[C@@H](CCC#N)CC4)CC1 [Compound I-42, 3-[(3S)-12-[[4-(dimethylamino)cyclohexyl]oxy]-7-thia-9,11-diazatricyclo 1[6.4.0.0[2,6]]dodeca-1(8),2(6),9,11-tetraen-3-yl]propanenitrile]
3 | < 5 | 0.5 to 1 | 0.5 to 1 | CC[C@@H](O)C[C@H]1CCc2sc3ncnc(O[C@H]4CC[C@H](N(C)C)CC4)c3c21 [Compound I-106]
4 | < 5 | ≤ 0.5 | ≤ 0.5 | NC(=O)[C@@H](O)C[C@H]1CCc2sc3ncnc(O[C@H]4CC[C@H](N5CCCCC5)CC4)c3c21 [Compound I-217, (S)-2-hydroxy-3-((R)-4-(((1r,4R)-4-(piperidin-1-yl)cyclohexyl)oxy)-6,7-dihydro-5H-cyclopenta[4,5]thieno[2,3-d]pyrimidin-5-yl)propanamide]
5 | < 5 | ≥ 5 | ≥ 5 | CN(C)[C@H]1CC[C@H](Oc2ncnc3sc4c(c23)CN(S(C)(=O)=O)CC4)CC1 [Compound I-168, 4-([12-methanesulfonyl-8-thia-4,6,12-triazatricyclo[7.4.0.0-[2,7]]trideca-1(9),2(7),3,5-tetraen-3-yl]oxy)-N,N-dimethylcyclohexan-1-amine]
6 | < 5 | – | 0.5 to 1 | C[C@@H](O)C[C@H]1CCc2sc3ncnc(O[C@H]4CC[C@H](N(C)CC(=O)N5CCCC5)CC4)c3c21 [Compound I-109, 2-[(4-[[(3R)-3-[(2R)-2-hydroxypropyl]-7-thia-9,11-diazatricyclo[6.4.0.0[2,6]]dodeca-1(8),2(6),9,11-tetraen-12-yl]oxy]cyclohexyl)(methyl)amino]-1-(pyrrolidin-1-yl)ethan-1-one]
7 | < 5 | 1 to 5 | 1 to 5 | C[C@H](O)C[C@H]1CCc2sc3ncnc(O[C@H]4CC[C@H](N(C)C)CC4)c3c21 [Compound I-40, (2S)-1-[(3R)-12-[[4-(dimethylamino)cyclohexyl]oxy]-7-thia-9,11-diazatricyclo[6.4.0.0[2,61]]dodeca-1(8),2(6),9,11-tetraen-3-yl]propan-2-ol]
8 | < 5 | ≤ 0.5 | ≤ 0.5 | NC(=O)[C@@H](O)C[C@H]1CCc2sc3ncnc(N[C@H]4CC[C@H](N5CCOCC5)CC4)c3c21 [Compound I-120, (S)-2-hydroxy-3-((R)-4-(((1r,4R)-4-morpholinocyclohexyl)amino)-6,7-dihydro-5H-cycyclopenta[4,5]thieno[2,3-d]pyrimidin-5-yl)propanamide]
9 | < 5 | – | 1 to 5 | CN(CC(=O)N1CCCC1)[C@H]1CC[C@H](Oc2ncnc3sc4c(c23)[C@@H](CCO)CC4)CC1 [Compound I-90, 2-(((1R,4r)-4-(((R)-5-(2-hydroxyethyl)-6,7-dihydro-5H-cyclopenta[4,5]thieno[2,3-d]pyrimidin-4-yl)oxy)cyclohexyl)(methyl)amino)-1-(pyrrolidin-1-yl)ethanone]
10 | < 5 | 1 to 5 | 0.5 to 1 | CC[C@@H](O)C[C@H]1CCc2sc3ncnc(O[C@H]4CC[C@H](N5CCOCC5)CC4)c3c21 [Compound I-65, (R)-1-((R)-4-(((1r,4R)-4-morpholinocyclohexyl)oxy)-6,7-dihydro-5H-cyclopent[4,5]thieno[2,3-d]pyrimidin-5-yl)butan-2-ol]
11 | < 5 | ≤ 0.5 | ≤ 0.5 | NC(=O)C[C@H]1CCc2sc3ncnc(O[C@H]4CC[C@H](N5CCCCC5)CC4)c3c21 [Compound I-214, 2-[(3R)-12-[[4-(piperidin-1-yl)cyclohexyl]oxy]-7-thia-9,11-diazatricyclo[6.4.0.0[2,6]]dodeca-1(8),2(6),9,11-tetraen-3-yl]acetamide]
12 | < 5 | ≤ 0.5 | 0.5 to 1 | CN(C)[C@H]1CC[C@H](Oc2ncnc3sc4c(c23)[C@@H](C[C@@H](O)C(F)(F)F)CC4)CC1 [Compound I-68, (R)-3-((R)-4-(((1r,4R)-4-(dimethylamino)cyclohexyl)oxy)-6,7-dihydro-5H-cyclopenta[4,5]thieno[2,3-d]pyrimidin-5-yl)-1,1,1-trifluoropropan-2-ol]
13 | < 5 | ≤ 0.5 | ≤ 0.5 | CN(C)[C@H]1CC[C@H](Oc2ncnc3sc4c(c23)[C@@H](CC(F)(F)C(N)=O)CC4)CC1 [Compound I-144, 3-[(3R)-12-[[4-(dimethylamino)cyclohexyl]oxy]-7-thia-9,11-diazatricyclo[6.4.0.0[2,6]]dodeca-1(8),2(6),9,11-tetraen-3-yl]-2,2-difluoropropanamide]
14 | < 5 | 0.5 to 1 | 0.5 to 1 | NC(=O)[C@@H](O)C[C@H]1CCc2sc3ncnc(O[C@H]4CC[C@H](N)CC4)c3c21 [Compound I-135, (S)-3-((R)-4-(((1r,4R)-4-aminocyclohexyl)oxy)-6,7-dihydro-5H-cyclopenta[4,5]thieno[2,3-d]pyrimidin-5-yl)-2-hydroxypropanamide]
15 | < 5 | 1 to 5 | ≥ 5 | CN(C)[C@H]1CC[C@H](Nc2ncnc3sc4c(c23)CC(C)(C)OC4)CC1 [Compound I-194, 4-N-[12, 12-dimethyl-11-oxa-8-thia-4,6-diazatricyclo[7.4.0.0[2,7]]trideca-1(9),2(7),3,5-tetraen-3-yl]-1-N, 1-N-dimethylcyclohexane-1,4-diamine]
16 | < 5 | ≤ 0.5 | 0.5 to 1 | CCN[C@H]1CC[C@H](Oc2ncnc3sc4c(c23)[C@@H](C[C@H](O)C(N)=O)CC4)CC1 [Compound I-136, (2S)-3-[(3R)-12-[[4-(ethylamino)cyclohexyl]oxy]-7-thia-9,11-diazatricyclo[6.4.0.0[2,6]]dodeca-1(8),2(6),9,11-tetraen-3-yl]-2-hydroxypropanamide]
17 | < 5 | – | ≥ 5 | CN(CC(=O)N1CCCC1)[C@H]1CC[C@H](Oc2ncnc3sc4c(c23)[C@@H](CCC(N)=O)CC4)CC1 [Compound I-94, 3-((S)-4-(((1r,4S)-4-(methyl(2-oxo-2-(pyrrolidin-1-yl)ethyl)amino)cyclohexyl)oxy)-6,7-dihydro-5H-cyclopenta[4,5]thieno[2,3-d]pyrimidin-5-yl)propanamide]
18 | < 5 | ≤ 0.5 | ≤ 0.5 | NC(=O)[C@H](O)C[C@H]1CCc2sc3ncnc(O[C@H]4CC[C@H](N5CCCC5)CC4)c3c21 [Compound I-228, (R)-2-hydroxy-3-((R)-4-(((1r,4R)-4-(pyrrolidin-1-yl)cyclohexyl)oxy)-6,7-dihydro-5H-cyclopenta[4,5]thieno[2,3-d]pyrimidin-5-yl)propanamide]
19 | < 5 | ≥ 5 | ≥ 5 | CN(C)[C@H]1CC[C@H](Nc2ncnc3sc4c(c23)C[C@@H](C(N)=O)CC4)CC1 [Compound I-230, (12S)-3-[[4-(dimethylamino)cyclohexyl]amino]-8-thia-4,6-diazatricyclo[7.4.0.0[2,7]]trideca-1(9),2(7),3,5-tetraene-12-carboxamide]
20 | < 5 | 1 to 5 | 1 to 5 | CN(C)[C@H]1CC[C@H](Oc2ncnc3sc4c(c23)[C@@H](C[C@@H](O)C2CCCO2)CC4)CC1 (stereo partly drawn) [Compound I-88, (1R)-2-((R)-4-(((1r,4R)-4-(dimethylamino)cyclohexyl)oxy)-6,7-dihydro-5H-cyclopenta[4,5]thieno[2,3-d]pyrimidin-5-yl)-1-(tetrahydrofuran-2-yl)ethanol]
21 | < 5 | 0.5 to 1 | 0.5 to 1 | CN(C)[C@H]1CC[C@H](Oc2ncnc3sc4c(c23)[C@@H](CC(C#N)C(N)=O)CC4)CC1 (mixture of isomers) [Compound I-51, 2-cyano-3-(12-[[4-(dimethylamino)cyclohexyl]oxy]-7-thia-9,11-diazatricyclo[6.4.0.0[2,6]]dodeca-1(12),2(6),8,10-tetraen-3-yl)propanamide]
